Measurements reported in US20260053932A1, “COMPOUNDS AND METHODS FOR THE TARGETED DEGRADATION OF ANDROGEN RECEPTOR AND ASSOCIATED METHODS OF USE” (Arvinas Operations, Inc., priority 2020, published 2026).

system: androgen receptor (AR) in LNCaP and/or VCaP cells; assay: Androgen Receptor ELISA assay (AR degradation); assay type: cell-based; settings: LNCaP and/or VCaP cells; 5 hours incubation; media with R1881; read-out: DC50 Code* (degradation of AR ELISA)
Outline: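 VCaP cells grown ≥3 days, then treated 5 h with compound in media containing 1 nM R1881 (10× stock). Cells lysed and AR quantified by sandwich ELISA (mouse AR detection Ab, HRP anti-mouse, TMB). DC50 and Dmax derived from AR degradation.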

Row | Structure (SMILES) | DC50
1 | COCCN(CC1CCN(c2cnc(C(=O)N[C@H]3CC[C@H](Oc4ccc(C#N)c(OC)c4)CC3)cn2)CC1)[C@H]1C[C@H](Oc2ccc3c(c2)C(=O)N(C2CCC(=O)NC2=O)C3=O)C1 (stereo partly shown) [Compound 68, N-((1r,4r)-4-(4-cyano-3-methoxyphenoxy)cyclohexyl)-5-(4-((((1r,3r)-3-((2-(2,6-dioxopiperidin-3-yl)-1,3-dioxoisoindolin-5-yl)oxy)cyclobutyl)(2-methoxyethyl)amino)methyl)piperidin-1-yl)pyrazine-2-carboxamide] | < 1 nM
2 | COc1cc(O[C@H]2CC[C@H](NC(=O)c3cnc(N4CC5(CC(CN(C(C)C)[C@H]6C[C@H](Oc7ccc8c(c7)CN(C7CCC(=O)NC7=O)C8=O)C6)C5)C4)cn3)CC2)ccc1C#N (stereo partly shown) [Compound 27, N-((1r,4r)-4-(4-cyano-3-methoxyphenoxy)cyclohexyl)-5-(6-((((1r,3r)-3-((2-(2,6-dioxopiperidin-3-yl)-1-oxoisoindolin-5-yl)oxy)cyclobutyl) (isopropyl)amino)methyl)-2-azaspiro[3.3]heptan-2-yl)pyrazine-2-carboxamide] | < 1 nM
3 | COc1cc(O[C@H]2CC[C@H](NC(=O)c3cnc(N4CC(CN(C(C)C)[C@H]5C[C@H](Oc6ccc7c(c6)C(=O)N(C6CCC(=O)NC6=O)C7=O)C5)C4)cn3)CC2)ccc1C#N (stereo partly shown) [Compound 20, N-((1r,4r)-4-(4-cyano-3-methoxyphenoxy)cyclohexyl)-5-(3-((((1r,3r)-3-((2-(2,6-dioxopiperidin-3-yl)-1,3-dioxoisoindolin-5-yl)oxy)cyclobutyl) (isopropyl)amino)methyl)azetidin-1-yl)pyrazine-2-carboxamide] | < 1 nM

same assay, conditions: degradation of AR ELISA in LNCaP and/or VCaP cells; Table 2C; read-out: DC50 Code*

Row | Structure (SMILES) | DC50
4 | COCCN(CC1CCN(c2nc(C)c(C(=O)N[C@H]3C(C)(C)[C@H](Oc4ccc(C#N)c(OC)c4)C3(C)C)c(C)n2)CC1)[C@H]1C[C@H](Oc2cc(OC)c3c(c2)C(=O)N(C2CCC(=O)NC2=O)C3=O)C1 (mixture of isomers) [compound 232, rac-N-((1r,3r)-3-(4-cyano-3-methoxyphenoxy)-2,2,4,4-tetramethylcyclobutyl)-2-(4-((((1r,3r)-3-((2-(2,6-dioxopiperidin-3-yl)-7-methoxy-1,3-dioxoisoindolin-5-yl)oxy)cyclobutyl)(2-methoxyethyl)amino)methyl)piperidin-1-yl)-4,6-dimethylpyrimidine-5-carboxamide] | < 1 nM
5 | CCN(CC1CCN(c2ncc(C(=O)N[C@H]3C(C)(C)[C@H](Oc4cc(C)c(C#N)c(C)c4)C3(C)C)cn2)CC1)[C@H]1C[C@H](Oc2ccc3c(c2)C(=O)N(C2CCC(=O)NC2=O)C3=O)C1 (stereo partly shown) [compound 83, N-((1r,3r)-3-(4-cyano-3,5-dimethylphenoxy)-2,2,4,4-tetramethylcyclobutyl)-2-(4-((((1r,3r)-3-((2-(2,6-dioxopiperidin-3-yl)-1,3-dioxoisoindolin-5-yl)oxy)cyclobutyl)(ethyl)amino)methyl)piperidin-1-yl)pyrimidine-5-carboxamide] | < 1 nM
6 | CCOc1cc(O[C@H]2C(C)(C)[C@H](NC(=O)c3ccc(N4CC(CN(C(C)C)[C@H]5C[C@H](Oc6ccc7c(c6)C(=O)N(C6CCC(=O)NC6=O)C7=O)C5)C4)cc3)C2(C)C)ccc1C#N (stereo partly shown) [compound 217, N-((1r,3r)-3-(4-cyano-3-ethoxyphenoxy)-2,2,4,4-tetramethylcyclobutyl)-4-(3-((((1r,3r)-3-((2-(2,6-dioxopiperidin-3-yl)-1,3-dioxoisoindolin-5-yl)oxy)cyclobutyl) (isopropyl)amino)methyl)azetidin-1-yl)benzamide] | < 1 nM
7 | CCN(C1CCN(c2ccc(C(=O)N[C@H]3C(C)(C)[C@H](Oc4cc(C)c(C#N)c(C)c4)C3(C)C)cc2)CC1)[C@H]1C[C@H](Oc2cc(OC)c3c(c2)C(=O)N(C2CCC(=O)NC2=O)C3=O)C1 (mixture of isomers) [compound 165, rac-N-((1r,3r)-3-(4-cyano-3,5-dimethylphenoxy)-2,2,4,4-tetramethylcyclobutyl)-4-(4-(((1r,3r)-3-((2-(2,6-dioxopiperidin-3-yl)-7-methoxy-1,3-dioxoisoindolin-5-yl)oxy)cyclobutyl) (ethyl)amino)piperidin-1-yl)benzamide] | < 1 nM
8 | Cc1cc(O[C@H]2C(C)(C)[C@H](NC(=O)c3ccc(N4CCC(CN(C)[C@H]5C[C@H](Oc6ccc7c(c6)C(=O)N(C6CCC(=O)NC6=O)C7=O)C5)CC4)cc3)C2(C)C)cc(C)c1C#N (mixture of isomers) [compound 186, rac-N-((1r,3r)-3-(4-cyano-3,5-dimethylphenoxy)-2,2,4,4-tetramethylcyclobutyl)-4-(4-((((1r,3r)-3-((2-(2,6-dioxopiperidin-3-yl)-1,3-dioxoisoindolin-5-yl)oxy)cyclobutyl) (methyl)amino)methyl)piperidin-1-yl)benzamide] | < 1 nM
9 | Cc1cc(O[C@H]2C(C)(C)[C@H](NC(=O)c3ccc(N4CC5(CC(CN(C(C)C)[C@H]6C[C@H](Oc7ccc8c(c7)C(=O)N(C7CCC(=O)NC7=O)C8=O)C6)C5)C4)nn3)C2(C)C)cc(C)c1C#N (stereo partly shown) [compound 163, N-((1r,3r)-3-(4-cyano-3,5-dimethylphenoxy)-2,2,4,4-tetramethylcyclobutyl)-6-(6-((((1r,3r)-3-((2-(2,6-dioxopiperidin-3-yl)-1,3-dioxoisoindolin-5-yl)oxy)cyclobutyl) (isopropyl)amino)methyl)-2-azaspiro[3.3]heptan-2-yl)pyridazine-3-carboxamide] | < 1 nM
10 | CC(C)N(C[C@H]1C2CN(c3ncc(C(=O)N[C@H]4C(C)(C)[C@H](Oc5ccc(C#N)c(Cl)c5)C4(C)C)cn3)C[C@H]21)[C@H]1C[C@H](Oc2ccc3c(c2)C(=O)N(C2CCC(=O)NC2=O)C3=O)C1 (stereo partly drawn) [compound 92, N-((1r,3S)-3-(3-chloro-4-cyanophenoxy)-2,2,4,4-tetramethylcyclobutyl)-2-((1S,5S)-6-((((1r,3S)-3-((2-(2,6-dioxopiperidin-3-yl)-1,3-dioxoisoindolin-5-yl)oxy)cyclobutyl) (isopropyl)amino)methyl)-3-azabicyclo[3.1.0]hexan-3-yl)pyrimidine-5-carboxamide] | < 1 nM
11 | Cc1cc(O[C@H]2C(C)(C)[C@H](NC(=O)c3c(C)nc(N4CCC(CN(C(C)C)[C@H]5C[C@H](Oc6ccc7c(c6)C(=O)N(C6CCC(=O)NC6=O)C7=O)C5)CC4)nc3C)C2(C)C)cc(C)c1C#N (mixture of isomers) [compound 200, rac-N-((1r,3r)-3-(4-cyano-3,5-dimethylphenoxy)-2,2,4,4-tetramethylcyclobutyl)-2-(4-((((1r,3r)-3-((2-(2,6-dioxopiperidin-3-yl)-1,3-dioxoisoindolin-5-yl)oxy)cyclobutyl) (isopropyl)amino)methyl)piperidin-1-yl)-4,6-dimethylpyrimidine-5-carboxamide] | < 1 nM
12 | COc1cc(O[C@H]2C[C@H](N(CC3CCN(c4ncc(C(=O)N[C@H]5C(C)(C)[C@H](Oc6cc(C)c(C#N)c(C)c6)C5(C)C)cn4)CC3)CC(F)(F)F)C2)cc2c1C(=O)N(C1CCC(=O)NC1=O)C2=O (stereo partly shown) [compound 179, N-((1r,3r)-3-(4-cyano-3,5-dimethylphenoxy)-2,2,4,4-tetramethylcyclobutyl)-2-(4-((((1r,3r)-3-((2-(2,6-dioxopiperidin-3-yl)-7-methoxy-1,3-dioxoisoindolin-5-yl)oxy)cyclobutyl)(2,2,2-trifluoroethyl)amino)methyl)piperidin-1-yl)pyrimidine-5-carboxamide] | < 1 nM
13 | COc1cc(O[C@H]2C(C)(C)[C@H](NC(=O)c3cnc(N4CCC(CN(C(C)C)[C@H]5C[C@H](Oc6cccc7c6CN(C6CCC(=O)NC6=O)C7=O)C5)CC4)cn3)C2(C)C)ccc1C#N (mixture of isomers) [compound 177, rac-N-((1r,3r)-3-(4-cyano-3-methoxyphenoxy)-2,2,4,4-tetramethylcyclobutyl)-5-(4-((((1r,3r)-3-((2-(2,6-dioxopiperidin-3-yl)-1-oxoisoindolin-4-yl)oxy)cyclobutyl) (isopropyl)amino)methyl)piperidin-1-yl)pyrazine-2-carboxamide] | < 1 nM
14 | Cc1cc(O[C@H]2C(C)(C)[C@H](NC(=O)c3ccc(N4CCC(CN5CCOC[C@@H]5CCOc5ccc6c(c5)C(=O)N(C5CCC(=O)NC5=O)C6=O)CC4)cc3)C2(C)C)cc(C)c1C#N (stereo partly drawn) [compound 174, N-((1r,3S)-3-(4-cyano-3,5-dimethylphenoxy)-2,2,4,4-tetramethylcyclobutyl)-4-(4-(((3S)-3-(2-((2-(2,6-dioxopiperidin-3-yl)-1,3-dioxoisoindolin-5-yl)oxy)ethyl)morpholino)methyl)piperidin-1-yl)benzamide] | < 1 nM
15 | COc1cc(O[C@H]2C[C@H](N(CCN3CCOCC3)CC3CCN(c4ccc(C(=O)N[C@H]5C(C)(C)[C@H](Oc6cc(C)c(C#N)c(C)c6)C5(C)C)cc4)CC3)C2)cc2c1C(=O)N(C1CCC(=O)NC1=O)C2=O (stereo partly shown) [compound 180, N-((1r,3r)-3-(4-cyano-3,5-dimethylphenoxy)-2,2,4,4-tetramethylcyclobutyl)-4-(4-((((1r,3r)-3-((2-(2,6-dioxopiperidin-3-yl)-7-methoxy-1,3-dioxoisoindolin-5-yl)oxy)cyclobutyl)(2-morpholinoethyl)amino)methyl)piperidin-1-yl)benzamide] | < 1 nM

same assay, conditions: degradation of AR ELISA in LNCaP and/or VCaP cells; read-out: DC50 Code*

Row | Structure (SMILES) | DC50
16 | COCCN(CC1CCN(c2nc(C)c(C(=O)N[C@H]3C(C)(C)[C@H](Oc4ccc(C#N)c(OC)c4)C3(C)C)c(C)n2)CC1)[C@H]1C[C@H](Oc2ccc3c(c2)C(=O)N(C2CCC(=O)NC2=O)C3=O)C1 (mixture of isomers) [compound 240, rac-N-((1r,3r)-3-(4-cyano-3-methoxyphenoxy)-2,2,4,4-tetramethylcyclobutyl)-2-(4-((((1r,3r)-3-((2-(2,6-dioxopiperidin-3-yl)-1,3-dioxoisoindolin-5-yl)oxy)cyclobutyl)(2-methoxyethyl)amino)methyl)piperidin-1-yl)-4,6-dimethylpyrimidine-5-carboxamide] | 1 to 10 nM
